Literature values, collected in US20070207452A1, “Method of detecting micronucleus in cell” (Olympus Corporation, priority 2004, published 2007).

Test system: bacteria
Conditions: background statement; carcinogenic substances detected by the chromosomal aberration test

SMILES: CC/C(=C(/CC)c1ccc(O)cc1)c1ccc(O)cc1 [diethylstilbestrol]
- result in the reverse mutation test: negative

SMILES: c1ccccc1 [benzene]
- result in the reverse mutation test: negative
